Data reported in patent US7880007B2, “Bicyclic substituted phenyl piperidine modulators of muscarinic receptors” (Vertex Pharmaceuticals Incorporated, priority 2004, dated 2011).

How the values were obtained:
Type in all cases: cell-based
M2 muscarinic receptor = target: T1, M2 muscarinic receptor (Homo sapiens, UniProt P08172); assay: Functional mobilization of intracellular calcium (FLIPR), M2-CHO cells; settings: for Emax: 100% efficacy = maximum response obtained with the Carbachol control; for M2 Activity: M2-CHO cells, calcium mobilization (FLIPR)
T1 construct: expressed in transfected cells; host or cells: CHO (M2-CHO)
T1 sequence (P08172 1-466): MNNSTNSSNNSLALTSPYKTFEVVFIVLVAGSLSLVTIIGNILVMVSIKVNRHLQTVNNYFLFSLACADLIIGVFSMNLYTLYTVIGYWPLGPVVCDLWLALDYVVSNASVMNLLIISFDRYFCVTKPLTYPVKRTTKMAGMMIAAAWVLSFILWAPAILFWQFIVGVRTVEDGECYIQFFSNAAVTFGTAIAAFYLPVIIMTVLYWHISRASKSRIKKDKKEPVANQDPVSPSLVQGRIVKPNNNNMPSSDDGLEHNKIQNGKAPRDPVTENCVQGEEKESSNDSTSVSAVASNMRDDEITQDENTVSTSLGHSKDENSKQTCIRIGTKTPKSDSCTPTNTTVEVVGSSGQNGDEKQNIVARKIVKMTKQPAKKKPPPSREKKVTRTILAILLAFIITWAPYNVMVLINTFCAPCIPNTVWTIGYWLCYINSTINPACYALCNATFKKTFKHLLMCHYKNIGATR
Protocol: (§1) Functional Mobilization of Intracellular Calcium to Determine Muscarinic Receptor Activity:
(§2) CHO cells expressing muscarinic receptors (M1 to M5) are grown as monolayers in tissue culture flasks at 37° C. in a humidified atmosphere containing 5% CO2 and passaged every 3-5 days. The growth media is Dulbecco's modified eagles medium (DMEM, Gibco Cat #12430-054), containing 25 mM Hepes and supplemented with Fetal Bovine Serum (Hyclone, cat #SH30071.03), 0.1 mM of MEM non-essential amino acids (GIBCO, Cat #11140-050), 1 mM MEM Sodium Pyruvate (GIBCO Cat #11360-070) and 100 units/ml of Penicillin G and 100 μg/ml of Streptomycin (GIBCO Cat #15140-122). The recombinant muscarinic receptor cell lines are grown under antibiotic pressure with media containing 25 μg/ml zeocin and 500 μg/ml G418 (M1-CHO), 4 μg/ml puromycin, 50 μg/ml zeocin and 2.5 μg/ml blasticidin (M2 and M4-CHO) or 50 μg/ml zeocin and 4 μg/ml puromycin (M3 and M5-CHO).
(§3) Cells are harvested at 80-90% confluence using Versene (GIBCO Cat #15040-066), collected by centrifugation and seeded 18-24 hrs prior to running the calcium assay at a density of 5,000-10,000 cells/well in […], clear-bottomed 384-well plates (BD Biocoat, poly-D-lysine, Cat #356663). The day of the experiment, the cells are washed with a plate washer (Bioteck Instruments, ELX 405) using bath 1 buffer (140-mM NaCl, 4.5-mM KCl, 2-mM CaCl2, 1-mM MgCl2, 10-mM Hepes-Na, 10-mM Glucose, pH 7.4, with NaOH) containing 1 mM Probenecid. Next, the calcium dye Fluo-3 (25 μl/well of Fluo-3 AM at 4 μM, Molecular Probes F-1241, in Bath 1 buffer containing 1 mM Probenecid) is added to the 25 μl of Bath 1 remaining in each well after the plate wash and the dye is loaded at 37° C. in the tissue culture incubator for 60-90 min. The fluorescent dye is removed using the plate washer with Bath 1 containing 1 mM Probenecid, leaving 25 μl/well of this solution after the wash. Alternatively, cells can be loaded with the calcium indicator from Molecular Devices (Calcium 3 Assay Reagents, Cat #R7181) adding 5 μl of a 5× solution dye in Bath 1 containing 1 mM Probenecid (10 ml per dye flask cat #R7182 to generate a solution 20×) to 20 μl of the same buffer. After loading for 60 min, the experiment can be run without having to remove the dye.
(§4) Compounds are prepared at a 2× fold concentration in a 96-well plate (round bottom, Costar Corning cat #3656), by reconstituting the pre-spotted compounds in bath 1 containing 1 mM probenecid. The final concentration DMSO is 0.5%, and the amount of DMSO is normalized across the assay plate. To determine an agonist action of the compounds on muscarinic receptors, the reconstituted compounds are added (25 μl compound/well) to the cell assay plate (containing 25 μl/well) using the multi-channel robotic system of the FLIPR 3 Instrument (Molecular Devices, Sunnyvale, Calif.). To determine a functional inhibitory action of the compounds on muscarinic receptors, the reconstituted compounds are added (25 μl compound/well) to the assay plate and pre-incubated for 15 min prior to adding 25 μl of Carbachol at 3× the EC80 for each muscarinic subtype. Alternatively, the compounds can be co-applied simultaneously with the agonist. In both assay modes, the fluorescence is recorded for 60 sec (excitation wavelength is […] and emission wavelength 540 nm) using the FLIPR 3 instrument.
(§5) The potency, efficacy and selectivity of the muscarinic compounds were evaluated by screening the compound activity across the whole family (M1 to M5 cells). Compounds were also screened for activity on other proteins such as other GPCRs and ion channels to determine selectivity on M4 receptors.
(§6) Examples of activities and efficacies of the muscarinic compounds of formulae (I, Ia, Ib, and II) on modulating M1, M2, M3 and M4 receptors are shown below in Table 3. […]

M4 muscarinic receptor = target: T2, M4 muscarinic receptor (Homo sapiens, UniProt P08173); assay: Functional mobilization of intracellular calcium (FLIPR), M4-CHO cells; settings: for Emax: 100% efficacy = maximum response obtained with the Carbachol control; for M4 Activity: M4-CHO cells, calcium mobilization (FLIPR)
T2 construct: expressed in transfected cells; host or cells: CHO (M4-CHO)
T2 sequence (P08173 1-479): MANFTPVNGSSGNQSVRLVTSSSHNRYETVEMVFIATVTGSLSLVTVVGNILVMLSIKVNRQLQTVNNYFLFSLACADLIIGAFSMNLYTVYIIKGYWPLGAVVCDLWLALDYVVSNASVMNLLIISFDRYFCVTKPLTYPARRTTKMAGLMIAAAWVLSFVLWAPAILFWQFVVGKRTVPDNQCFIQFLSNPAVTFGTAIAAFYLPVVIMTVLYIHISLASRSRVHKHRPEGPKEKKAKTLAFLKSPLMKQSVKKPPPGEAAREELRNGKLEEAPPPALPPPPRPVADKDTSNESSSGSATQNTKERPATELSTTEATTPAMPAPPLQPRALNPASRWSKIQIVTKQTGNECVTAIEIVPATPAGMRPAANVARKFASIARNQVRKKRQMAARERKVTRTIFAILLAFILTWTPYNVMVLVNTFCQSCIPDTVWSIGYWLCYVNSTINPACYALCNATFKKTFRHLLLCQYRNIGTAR
Protocol: as §1, §2, §3, §4, §5, §6

M1 muscarinic receptor = target: T3, M1 muscarinic receptor (Homo sapiens, UniProt P11229); assay: Functional mobilization of intracellular calcium (FLIPR), M1-CHO cells; settings: for Emax: 100% efficacy = maximum response obtained with the Carbachol control; for M1 Activity: M1-CHO cells, calcium mobilization (FLIPR)
T3 construct: expressed in transfected cells; host or cells: CHO (M1-CHO)
T3 sequence (P11229 1-460): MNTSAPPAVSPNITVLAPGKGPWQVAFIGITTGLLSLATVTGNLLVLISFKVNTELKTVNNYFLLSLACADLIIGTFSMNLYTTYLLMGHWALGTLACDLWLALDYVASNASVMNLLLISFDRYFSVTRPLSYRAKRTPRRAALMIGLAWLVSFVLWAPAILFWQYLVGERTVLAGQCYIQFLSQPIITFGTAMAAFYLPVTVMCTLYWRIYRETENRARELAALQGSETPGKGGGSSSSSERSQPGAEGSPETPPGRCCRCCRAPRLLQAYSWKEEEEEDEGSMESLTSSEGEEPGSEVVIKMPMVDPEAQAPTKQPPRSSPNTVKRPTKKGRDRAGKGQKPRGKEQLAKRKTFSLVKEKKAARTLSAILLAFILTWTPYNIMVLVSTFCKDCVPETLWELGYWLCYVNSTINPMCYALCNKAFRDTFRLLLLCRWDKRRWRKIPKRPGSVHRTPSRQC
Protocol: as §1, §2, §3, §4, §5, §6

COc1ccc(C)cc1C1CCN(CC2C[C@H]3CC[C@H]2C3)CC1 (stereo partly drawn) [Compound 107]
Emax (M2 muscarinic receptor): < 25% | M2 Activity (M2 muscarinic receptor): + (activity was measured to be greater than 5.0 μM) | Emax (M4 muscarinic receptor): 25 to 100% | M4 Activity (M4 muscarinic receptor): +++ (activity was measured to be less than 1.0 μM) | Emax (M1 muscarinic receptor): 25 to 100% | M1 Activity (M1 muscarinic receptor): + (activity was measured to be greater than 5.0 μM)

CCCC1CCC(N2CCC(c3cc(F)ccc3OC)CC2)CC1 (stereo not drawn) [Compound 125]
Emax (M2 muscarinic receptor): 25 to 100% | M2 Activity (M2 muscarinic receptor): ++ (activity was measured to be from 1.0 μM to 5.0 μM) | Emax (M4 muscarinic receptor): 25 to 100% | M4 Activity (M4 muscarinic receptor): +++ (activity was measured to be less than 1.0 μM) | Emax (M1 muscarinic receptor): 25 to 100% | M1 Activity (M1 muscarinic receptor): +++ (activity was measured to be less than 1.0 μM)

CCOC(=O)N1C2CCC1CC(N1CCC(C#N)(c3ccccc3OC)CC1)C2 (stereo not drawn) [Compound 131]
Emax (M2 muscarinic receptor): < 25% | M2 Activity (M2 muscarinic receptor): + (activity was measured to be greater than 5.0 μM) | Emax (M4 muscarinic receptor): 25 to 100% | M4 Activity (M4 muscarinic receptor): +++ (activity was measured to be less than 1.0 μM) | Emax (M1 muscarinic receptor): 25 to 100% | M1 Activity (M1 muscarinic receptor): +++ (activity was measured to be less than 1.0 μM)

COc1ccccc1C1(C#N)CCN(C2CC3CCC2C3)CC1 (stereo not drawn) [Compound 136]
Emax (M2 muscarinic receptor): < 25% | M2 Activity (M2 muscarinic receptor): + (activity was measured to be greater than 5.0 μM) | Emax (M4 muscarinic receptor): 25 to 100% | M4 Activity (M4 muscarinic receptor): ++ (activity was measured to be from 1.0 μM to 5.0 μM) | Emax (M1 muscarinic receptor): 25 to 100% | M1 Activity (M1 muscarinic receptor): + (activity was measured to be greater than 5.0 μM)

COc1ccc(Cl)cc1C1CCN(CC2CC3C=CC2C3)CC1 (stereo not drawn) [Compound 141]
Emax (M2 muscarinic receptor): 25 to 100% | M2 Activity (M2 muscarinic receptor): ++ (activity was measured to be from 1.0 μM to 5.0 μM) | Emax (M4 muscarinic receptor): 25 to 100% | M4 Activity (M4 muscarinic receptor): +++ (activity was measured to be less than 1.0 μM) | Emax (M1 muscarinic receptor): 25 to 100% | M1 Activity (M1 muscarinic receptor): ++ (activity was measured to be from 1.0 μM to 5.0 μM)

CCOC(=O)N1[C@@H]2CC[C@@H]1CC(N1CCC(c3cc(F)ccc3C)CC1)C2 (stereo partly drawn) [Compound 145]
Emax (M2 muscarinic receptor): 25 to 100% | M2 Activity (M2 muscarinic receptor): +++ (activity was measured to be less than 1.0 μM) | Emax (M4 muscarinic receptor): 25 to 100% | M4 Activity (M4 muscarinic receptor): +++ (activity was measured to be less than 1.0 μM) | Emax (M1 muscarinic receptor): 25 to 100% | M1 Activity (M1 muscarinic receptor): +++ (activity was measured to be less than 1.0 μM)

COc1ccc(C2CCN(CC3C[C@H]4CC[C@H]3C4)CC2)c(OC)c1 (stereo partly drawn) [Compound 159]
Emax (M2 muscarinic receptor): < 25% | M2 Activity (M2 muscarinic receptor): + (activity was measured to be greater than 5.0 μM) | Emax (M4 muscarinic receptor): < 25% | M4 Activity (M4 muscarinic receptor): ++ (activity was measured to be from 1.0 μM to 5.0 μM) | Emax (M1 muscarinic receptor): < 25% | M1 Activity (M1 muscarinic receptor): + (activity was measured to be greater than 5.0 μM)

CCCC1CCC(N2CCC(O)(c3cc(Cl)ccc3OC)CC2)CC1 (stereo not drawn) [Compound 164]
Emax (M2 muscarinic receptor): < 25% | M2 Activity (M2 muscarinic receptor): + (activity was measured to be greater than 5.0 μM) | Emax (M4 muscarinic receptor): 25 to 100% | M4 Activity (M4 muscarinic receptor): ++ (activity was measured to be from 1.0 μM to 5.0 μM) | Emax (M1 muscarinic receptor): < 25% | M1 Activity (M1 muscarinic receptor): + (activity was measured to be greater than 5.0 μM)

COc1ccc(NC(C)=O)cc1C1CCN(CC2C[C@H]3CC[C@H]2C3)CC1 (stereo partly drawn) [Compound 166]
Emax (M2 muscarinic receptor): < 25% | M2 Activity (M2 muscarinic receptor): + (activity was measured to be greater than 5.0 μM) | Emax (M4 muscarinic receptor): < 25% | M4 Activity (M4 muscarinic receptor): + (activity was measured to be greater than 5.0 μM) | Emax (M1 muscarinic receptor): < 25% | M1 Activity (M1 muscarinic receptor): + (activity was measured to be greater than 5.0 μM)

COc1ccccc1C1(C#N)CCN(C[C@H]2C[C@H]3CC[C@H]2C3)CC1 [Compound 172]
Emax (M2 muscarinic receptor): 25 to 100% | M2 Activity (M2 muscarinic receptor): +++ (activity was measured to be less than 1.0 μM) | Emax (M4 muscarinic receptor): 25 to 100% | M4 Activity (M4 muscarinic receptor): +++ (activity was measured to be less than 1.0 μM) | Emax (M1 muscarinic receptor): 25 to 100% | M1 Activity (M1 muscarinic receptor): +++ (activity was measured to be less than 1.0 μM)

COc1ccc(Cl)cc1C1(OC)CCN(C2CCOCC2)CC1 [Compound 201]
Emax (M2 muscarinic receptor): < 25% | M2 Activity (M2 muscarinic receptor): + (activity was measured to be greater than 5.0 μM) | Emax (M4 muscarinic receptor): < 25% | M4 Activity (M4 muscarinic receptor): + (activity was measured to be greater than 5.0 μM) | Emax (M1 muscarinic receptor): < 25% | M1 Activity (M1 muscarinic receptor): + (activity was measured to be greater than 5.0 μM)

COc1ccc(Cl)cc1C1(OC)CCN(C2CCCCC2)CC1 [Compound 203]
Emax (M2 muscarinic receptor): < 25% | M2 Activity (M2 muscarinic receptor): + (activity was measured to be greater than 5.0 μM) | Emax (M4 muscarinic receptor): 25 to 100% | M4 Activity (M4 muscarinic receptor): ++ (activity was measured to be from 1.0 μM to 5.0 μM) | Emax (M1 muscarinic receptor): 25 to 100% | M1 Activity (M1 muscarinic receptor): + (activity was measured to be greater than 5.0 μM)

COc1ccccc1C1CCN(CC2CC3CCC2O3)CC1 (stereo not drawn) [Compound 218]
Emax (M2 muscarinic receptor): < 25% | M2 Activity (M2 muscarinic receptor): + (activity was measured to be greater than 5.0 μM) | Emax (M4 muscarinic receptor): 25 to 100% | M4 Activity (M4 muscarinic receptor): ++ (activity was measured to be from 1.0 μM to 5.0 μM) | Emax (M1 muscarinic receptor): < 25% | M1 Activity (M1 muscarinic receptor): + (activity was measured to be greater than 5.0 μM)
